According to PubChem BioAssay AID493010 (Sanford-Burnham Center for Chemical Genomics, 2011):

These compounds were tested on 1x PBS pH 7.4 stability, LC/MS/MS, 48 h RT (assay: chemical stability in phosphate buffer, ADME assay, biochemical, 1x PBS, pH 7.4 (AID 493010)). Conditions: stronger effect = lower value.

Row | percent remaining [%] | SMILES
1 | 27 | COc1ccc(C2CC(c3ccccc3)=NN2c2ccc(S(N)(=O)=O)cc2)cc1 (centres undefined)
2 | 108 | CC(C)(C)c1ccc(C(=O)Nc2cc(Cl)c(Br)cc2C(=O)O)cc1
3 | 10.6 | COc1cccc(C2=NN(c3ccc(S(N)(=O)=O)cc3)C(c3ccc(Br)cc3)C2)c1 (centres undefined)
4 | 124 | CC(C)(C)c1ccc(C(=O)Nc2cc(Cl)c(Cl)cc2C(=O)O)cc1
